Assay results reported in publication PMC11869560, “Anticancer and cancer preventive activities of shogaol and curcumin from Zingiberaceae family plants in KG-1a leukemic stem cells” (BMC Complementary Medicine and Therapies, 2025).
Values after ≈ are worked out from the molar mass of the structure shown.

Experiments:
KG-1a cells [1] = assay: MTT cytotoxicity assay in KG-1a cells; assay type: cell-based, human; settings: for Selectivity index (SI): IC50 for normal cells (PBMCs) / IC50 for cancer cells (KG-1a)
Experimental: (§1) MTT (3-(4,5-dimethylthiazol-2-yl)-2,5-diphenyltetrazolium bromide) assay was used to investigate the cytotoxicity of the test samples. KG-1a (1.5 × 10^4 cells/well), K562 (1.0 × 10^4 cells/well), PBMCs (1.0 × 10^5 cells/well), A549 (5.0 × 10^3 cells/well), MCF-7 (5.0 × 10^3 cells/well), and HeLa (5.0 × 10^3 cells/well) were seeded into a 96-well plate and incubated overnight at 37 °C with 5% CO2. […] After that, 5 mg/mL of MTT dye solution (Sigma-Aldrich, MA, USA) was added and incubated for 4 h. The produced formazan crystals were dissolved in 200 µL of DMSO (Sigma-Aldrich, MA, USA); then, the optical density (OD) was measured using an ELISA plate reader (Metertech, Taipei, Taiwan) at 578 nm with a reference wavelength of 630 nm. The percentage of surviving cells was calculated from the absorbance values of the test and control wells using the following Equation. 1 [drawing 1]
(§2) where ODsample is a mean absorbance in test well and ODvehicle control is a mean absorbance in VC well. The average percentage of surviving cells at each concentration obtained from triplicate experiments was plotted as a dose-response curve. Inhibitory concentration values at 50% growth (IC50 value) were defined as the lowest concentration of the test sample that inhibited cell growth by 50% compared to the untreated control.
(§3) To calculate IC50 values, a dose-response curve was fitted using non-linear regression analysis, as described in the GraphPad Prism guidelines (https://www.graphpad.com/support/faq/how-to-determine-an-icsub50sub/). The IC50 value was obtained by determining the point at which the curve intersected 50% growth inhibition. Non-linear regression graphs of the dose-response curve for each compound are provided in the supplementary data file (Figs. S1–S8).
where IC50 N is IC50 for normal cells and IC50 C is IC50 for cancer cells which were treated with the same compounds in both cells.

[2] = tested on: WT1 protein expression in KG-1a cells; assay: WT1 protein expression in KG-1a cells by Western blotting; assay type: cell-based, human
Experimental: (§4) KG-1a cells (1.5 × 10^5 cells/mL) were treated with compounds or extracts at different incubation times. Then, the cells were harvested and the whole proteins were extracted using a RIPA buffer (25 mM Tris-base, pH 7.6, 0.1% SDS, 1% Triton X-100, 150 mM NaCl, and 1 mM EDTA). The protein concentration was measured using the Folin-Lowry or Bradford assay. The whole protein lysates (30 µg/lane) were then separated through 7.5% SDS-PAGE under reducing conditions and then transferred to PVDF membranes. The membranes were blocked in 5% skim milk in PBS, pH 7.4 at RT for 2 h, then, target proteins were probed with specific primary antibodies (anti-WT1, anti-CD34, anti-GAPDH, anti-cleaved caspase-3, anti-cleaved PARP, anti-phospho-Akt, anti-phospho-c-Jun, anti-phospho-SAPK/JNK, and anti-YAP/TAZ) indicated in Table S10 which diluted at a ratio of 1:1,000 in PBS, pH 7.4 at RT for 2 h. After incubation, the membranes were rinsed 6 times with 0.1% Tween-20 (Sigma-Aldrich, MA, USA) in PBS, pH 7.4 (PBS-T), each time for 5 min. The reaction was followed by HRP-conjugated secondary antibody at 1:20,000 dilution in PBS, pH 7.4 at RT for 2 h, then, the membranes were rinsed 6 times for 5 min each with PBS-T. The proteins were shown using Immobilon Forte Western HRP substrate (Millipore, MA, USA). Finally, the protein band signal was quantified by using a scan densitometer (Bio-Rad Laboratories, CA, USA).

KG-1a cells [3] = assay: Cell cycle and apoptosis (sub-G1) assay by flow cytometry in KG-1a cells; assay type: cell-based, human; settings: 48 h
Experimental: After treating KG-1a cells with active compounds at various concentrations for 48 h, the cells were pulsed with 10 µM BrdU (Sigma-Aldrich, MA, USA) for 20 min at 37 °C in an incubator with 5% CO2. Subsequently, the cells were harvested, washed with ice-cold PBS, pH 7.4 three times, and then fixed with 70% ethanol in PBS, pH 7.4 at −30 °C. Following fixation, the cells were washed and resuspended in 2 N HCl/0.5% Triton X-100 for 30 min at room temperature (RT). Then, 0.1 M sodium tetraborate decahydrate was added for 2 min at RT to neutralize the acid. Subsequently, the cells were stained with FITC-anti-BrdU antibody for 30 min at RT. After washing, the cells were resuspended in propidium iodide (PI) (Dojindo, Kumamoto, Japan) in PBS, pH 7.4 at a ratio of 1:1,000. The cell cycle phases were detected using a flow cytometer (CytoFLEX S, Beckman Coulter, CA, USA) and analyzed with the CytExpert program (Beckman Coulter, CA, USA).
The flow cytometry data were analyzed to assess both apoptosis and cell cycle distribution. Apoptosis was evaluated by determining the percentage of cells in the sub-G1 phase using the Nicoletti assay. For cell cycle analysis, populations in the G1, S, and G2/M phases were calculated after excluding the sub-G1 population to avoid interference from apoptotic cells, allowing for a clearer assessment of cell cycle arrest in different phases. Data were presented in separate graphs for the sub-G1 population and cell cycle phase distributions.

KG-1a cells [4] = assay: Cell death analysis by PI staining and flow cytometry in KG-1a cells; assay type: cell-based, human; settings: nocodazole 5–120 ng/mL, shogaol 6–9 µg/mL, curcumin various concentrations; time course
Experimental: Additionally, PI staining was used to investigate the cytotoxicity of the active compounds. KG-1a cells after exposure to the active compounds with various concentration were harvested at different incubation times and washed with ice-cold PBS, pH 7.4 for 2 times. Then, the cells were resuspended with PI in PBS, pH 7.4 at a ratio of 1:10,000. The percentage of dead cells was detected by flow cytometry (CytoFLEX S, Beckman Coulter, CA, USA) and analyzed by CytExpert program (Beckman Coulter, CA, USA).

[5] = tested on: cleaved caspase-3 and PARP in KG-1a cells; assay: Cleaved caspase-3 and cleaved PARP in KG-1a cells by Western blotting; assay type: cell-based, human; settings: IC50 concentrations (curcumin 10 µg/mL, shogaol 3 µg/mL, nocodazole 10 ng/mL), 0–12 h
Experimental: as §4

PBMCs = assay: MTT cytotoxicity assay in PBMCs; assay type: cell-based, human
Experimental: PBMCs were isolated from blood samples using the Ficoll-Hypaque technique. Initially, 10–20 mL of blood was collected in a heparin tube at a ratio of 1:500 from a minimum of three healthy volunteers. Subsequently, the blood samples were diluted with Phosphate buffer saline (PBS), pH 7.4, at a ratio of 1:1 to reduce viscosity. Histopaque-1077 (Sigma-Aldrich, MA, USA) was then underlaid the diluted sample and centrifuged at 400×g for 30 min. The resulting PBMCs were collected, washed with PBS, pH 7.4, and prepared for further experiments.
as §1, §2, §3

RAW264.7 cells = assay: Cytotoxicity (IC20, cell viability) in RAW264.7 cells; assay type: cell-based; settings: incubation for 48 h
Experimental: MTT (3-(4,5-dimethylthiazol-2-yl)-2,5-diphenyltetrazolium bromide) assay was used to investigate the cytotoxicity of the test samples. […] After that, 5 mg/mL of MTT dye solution (Sigma-Aldrich, MA, USA) was added and incubated for 4 h. The produced formazan crystals were dissolved in 200 μL of DMSO (Sigma-Aldrich, MA, USA); then, the optical density (OD) was measured using an ELISA plate reader ([…], Taiwan) at 578 nm with a reference wavelength of 630 nm. The percentage of surviving cells was calculated from the absorbance values of the test and control wells using the following Equation. 1 [drawing 1] […] Afterward, supernatants were collected, and the levels of TNF-α and NO were measured using the Mouse TNF alpha Uncoated ELISA Kit (InvitrogenTM, ThermoFisher Scientific, MA, USA) and the Total Nitric Oxide Assay Kit (InvitrogenTM, ThermoFisher Scientific, MA, USA), respectively, according to the manufacturer's instructions.

[6] = tested on: NO production in LPS-activated RAW264.7 cells; assay: NO production in LPS-activated RAW264.7 cells; assay type: cell-based, mouse; settings: IC20 concentration, LPS-activated, 24 h
Experimental: For the measurement of tumor necrosis factor-alpha (TNF-α) and NO, RAW264.7 cells were pre-treated with plant extracts and active compounds at a non-cytotoxic dose (IC20) (Table S9) or 1 µg/mL of dexamethasone (positive control) in a 24-well plate for 2 h. Subsequently, 1 µg/mL of lipopolysaccharide (LPS) (Cat No. 00497693, Invitrogen™, MA, USA) was added to each well, and the cells were incubated for an additional 24 h to allow sufficient time for the compounds to exert measurable anti-inflammatory effects while maintaining cell viability. Afterward, supernatants were collected, and the levels of TNF-α and NO were measured using the Mouse TNF alpha Uncoated ELISA Kit (Invitrogen™, ThermoFisher Scientific, MA, USA) and the Total Nitric Oxide Assay Kit (Invitrogen™, ThermoFisher Scientific, MA, USA), respectively, according to the manufacturer’s instructions.
The percentage of NO or cytokine inhibitions were calculated using the following equation: […]
where A is the level of cytokine or NO without treatment, and B is the level of cytokine or NO with treatment.

[7] = tested on: CD34 protein expression in KG-1a cells; assay: CD34 protein expression in KG-1a cells by Western blotting; assay type: cell-based, human; settings: IC20 concentrations, 48 h, normalized to GAPDH
Experimental: as §4

KG-1a cells [8] = assay: Trypan blue exclusion test, cell numbers of KG-1a cells; assay type: cell-based, human; settings: IC20 concentrations, 48 h
Experimental: (§5) This test was used to confirm the cytotoxicity of the test samples. The cancer cells after exposure to crude ethanolic extracts and active compounds for 48 h were harvested and washed with ice-cold PBS, pH 7.4 for 3 times. Then, the cells were resuspended with PBS, pH 7.4. The cell suspensions were diluted with PBS, pH 7.4 at the appropriate dilution before being mixed with 0.2% trypan blue solution at 1:2 dilution for cell count on a hemocytometer. From this test, the viable cells and the dead cells could also be obviously detected.
as §5, with “crude ethanolic extracts and active compounds. KG-1a” for “the test samples. The cancer”

[9] = active compounds and drugs, MTT, 48 h

COC(=O)Nc1nc2ccc(C(=O)c3cccs3)cc2[nH]1 [Nocodazole, nocodazole, reference compound]
IC50 (KG-1a cells [1]; Homo sapiens, KG-1a, as used for Western blotting, read-out: IC50 concentration in KG-1a cells): 0.01 µg/mL (≈ 0.0332 µM)
IC20 (KG-1a cells [1]; Homo sapiens, KG-1a, as used in the cell cycle assay, read-out: IC20 concentration in KG-1a cells): 0.006 µg/mL (≈ 0.0199 µM)
effect on WT1 expression ([2]; IC50 concentration, up to 12 h): failed to reduce WT1 expression even after 12 h of incubation
effect on sub-G1 population compared to VC (KG-1a cells [3]; IC20 concentration (nocodazole 6 ng/mL, curcumin 3 µg/mL, shogaol 0.12 µg/mL)): significantly increased the sub-G1 population
increase of proportion of cells in G2/M phase (KG-1a cells [3]; IC20 concentration, sub-G1 excluded): 23.48 ± 1.35%
induction of cell death (PI staining) (KG-1a cells [4]): significant induction of cell death after 24 h of incubation
time to activation of cleaved caspase-3 and PARP [5]: failed to induce the activation of cleaved caspase-3 and PARP even after 12 h of incubation

CCCCC[C@H](O)CC(=O)CCc1ccc(O)c(OC)c1 [Gingerol, gingerol]
Selectivity index (SI) (KG-1a cells [1]; 48 h): > 1.30
Selectivity index (SI) (KG-1a cells [1]; 48 h, listed as gingerol): greater than 1
IC50 value R1 (KG-1a cells [1]; Table S7, KG-1a, first replicate): 77.86 µg/mL (≈ 264 µM)
IC50 value R3 (KG-1a cells [1]; Table S7, KG-1a, third replicate): 77.08 µg/mL (≈ 262 µM)
IC50 KG-1a (KG-1a cells [1]; [9]): 76.77 ± 1.28 µg/mL (≈ 261 µM)
IC20 KG-1a (inhibitory concentration at 20% growth) (KG-1a cells [1]; incubation for 48 h): 14.09 ± 3.87 µg/mL (≈ 47.9 µM)
IC50 value R1 (PBMCs; Table S8, PBMCs, first replicate): > 100 µg/mL
IC50 value Mean (PBMCs; Table S8, PBMCs, mean of R1-R3): > 100 µg/mL
IC50 value R3 (PBMCs; Table S8, PBMCs, third replicate): > 100 µg/mL
IC50 PBMCs (PBMCs; [9]): > 100 µg/mL
IC20 PBMCs (inhibitory concentration at 20% growth) (PBMCs; incubation for 48 h): 76.94 ± 4.13 µg/mL (≈ 261 µM)
IC20 RAW264.7 (inhibitory concentration at 20% growth) (RAW264.7 cells): 16.73 ± 4.64 µg/mL (≈ 56.8 µM)
effect on NO production compared to dexamethasone (positive control) [6]: had no effect
decrease of WT1 protein level compared to VC ([2]; IC20 concentrations, 48 h, normalized to GAPDH): 43.98 ± 8.93%
decrease of CD34 protein level compared to VC [7]: 31.95 ± 5.70%
decrease of total cell number compared to VC (KG-1a cells [8]): 31.39 ± 8.69%
normalized viable cell counts (KG-1a cells [8]): 979.50 ± 8.90 × 10^3 cells per 1 million total cells
